From US20180353482A1, “MIRABEGRON FOR THE TREATMENT OF RETINAL DISEASES” (SORBONNE UNIVERSITE, priority 2015, published 2018)
Entries after “also recorded” stand apart in the source; their conditions may differ.

Key:
Assay type in all cases: cell-based, porcine
cathepsin D = assay: Cathepsin D activity measurement in RPE cells treated with concanamycin; conditions: FIG. 2
Method: (§1) Pigs' eyes are delivered to Institut de la Vision in a cold medium from a local slaughterhouse. The eyes are dissected so as to remove the anterior segment of the eye, the vitreous body and the neural retina. The eyeballs are then washed twice with PBS, filled with trypsin (0.25% in PBS) and incubated at 37° C. for 1 hr15. The RPE cells are then retrieved by repeated pipetting, centrifuged to remove the trypsin, and resuspended in DMEM culture medium supplemented with 20% foetal calf serum (DMEM20% FCS). The cells of each eye are then inoculated in a 6 cm diameter Petri dish, cultured in an atmosphere containing 5% CO2 at 37° C., and the culture medium is replaced after 24 hours and 4 days in vitro. After one week, the cells reach confluency and can then be passaged.
After one week in culture, the cells are treated with trypsin and transferred into 3.5 cm diameter Petri dishes at a cell density of 1.5×10^5 cells/cm^2 in DMEM2% FCS. After 24 hours, the cells are treated with 20 nM of concanamycin so as to inhibit the activity of cathepsin D, as well as with a beta-adrenergic agonist. After 24 hours of treatment, the cells are washed with PBS and then transferred into an extraction buffer on ice. The cell extract is centrifuged at 2000 rpm at 4° C. for 10 minutes and the supernatant corresponding to the cytosolic part is frozen at −80° C. until the measurement of the enzyme activity. The activity of cathepsin D is measured using the Anson method (J Gen Physiol. 1938, 22(1):79-89) that we adapted to our experimental schedule. In brief, the cytosolic extract is incubated for 10 minutes at 37° C. in a haemoglobin solution (2.5% in 400 mM of citrate buffer at pH 2.8). The reaction is stopped by adding 5% trichloroacetic acid and the mixture is centrifuged. The optical density of the supernatant containing the breakdown products of haemoglobin is measured at 280 nm. The absorbance is corrected by subtracting that of the control, prepared as above but by adding haemoglobin after stopping the enzymatic reaction. One unit of cathepsin D is then defined as being the quantity of enzyme required to induce a change of absorbance of 1 to 280 nm for 60 minutes of incubation using the experimental conditions described hereinabove. The protein concentration of the cell lysates is measured according to the Bradford method so as to normalise the results.
Cathepsin D is the lysosomal proteolytic enzyme mainly present in the retinal pigment epithelium involved in photoreceptor outer segment digestion. The activity thereof is dependent on the protonation of the amino acid aspartic acid of the active site thereof and on the conformation thereof, which both require an acidic environment. […]

RPE cells [1] = assay: Alkalinisation and measurement of lysosomal pH (pHL) of RPE cells treated with tamoxifen
Method: After one week in culture, the cells are treated with trypsin and transferred to a 96-well plate with a black background at a cell density of 1.5×10^5 cells/cm^2 in DMEM2% FCS. After 24 hours, the cells are treated with a beta-adrenergic agonist (mirabegron, amibegron, clenbuterol or isoproterenol at 1 pM or CL-316,243 at 20 nM), and 5 minutes later with tamoxifen (15 μM), and the pHL is measured after a further 20 minutes. […] To measure the pHL, the cells are incubated with the dye for 5 minutes at 37° C., and the fluorescence emitted by the dye is measured on a plate reader. The excited light ratio at 329/384 nm is then converted into pH using a calibration series (pH 4 to pH 6) performed in a KCl buffer in the presence of 10 μM of monensin and 20 μM of nigericin, two ionophores.

RPE cells [2] = assay: In vitro model of lipofuscin accumulation in RPE (oxidised photoreceptor outer segments); conditions: FIG. 3
Method: as §1, with “The cells of each eye are then inoculated in a 6 cm diameter Petri dish, cultured in an atmosphere containing 5% CO2 at 37° C., and the culture medium is replaced after 24 hours and 4 days in vitro. After one week, the cells reach confluency and can then be passaged.” left out
In order to induce an accumulation of lipofuscin type material in the RPE cells, the latter are treated 3 times per week with 5×10^6 POS-ox in DMEM20% FCS containing 2.5% of sucrose for two weeks. […] The autofluorescence induced by the accumulation of lipofuscin is measured using a plate reader (excitation at 480 nm and emission between 500 and 700 nm corresponding to the emission spectrum of lipofuscin).
In order to verify whether the different beta-adrenergic agonists are capable of also acting upon lipofuscin accumulation, we also tested them in a cell model wherein this accumulation is induced by treating RPE cells with oxidised OS by UV exposure every two days. […] The lipofuscin accumulation was measured after two weeks of co-treatment by measuring the autofluorescence of the cells.

[3] = RPE cells with 20 nM concanamycin, 24 hours of treatment

Compound: C/C=C/[C@H]1O[C@@](O)([C@@H](C)[C@H](O)[C@H](C)[C@H]2OC(=O)/C(OC)=C/C(C)=C/[C@@H](C)[C@@H](O)[C@@H](CC)[C@@H](O)[C@H](C)C/C(C)=C/C=C/[C@@H]2OC)C[C@@H](O)[C@@H]1C [concanamycin]
- cathepsin D activity (cathepsin D; [3]): 0.013 unit/ml of enzyme/min/μg of proteins

Compound: C[C@H](Cc1ccc2c(c1)OC(C(=O)[O-])(C(=O)[O-])O2)NC[C@H](O)c1cccc(Cl)c1.[Na+].[Na+] [CL-316,243]
- concentration from which effective on re-acidification of the lysosomal pH (RPE cells [1]; cells treated with 15 μM tamoxifen, FIG. 1): 20 nM

Compound: Nc1nc(CC(=O)Nc2ccc(CCNC[C@H](O)c3ccccc3)cc2)cs1 [mirabegron, (R)-2-(2-aminothiazol-4-yl)-4′-[2-[(2-hydroxy-2-phenylethyl)amino]ethyl]acetic acid anilide]
- effect on lipofuscin accumulation / photoreceptor outer segment digestion (in words) (RPE cells [2]; RPE cells, two weeks of treatment): significantly reduce the accumulation of lipofuscin; also recorded: reduces the accumulation of lipofuscin
- reduction of the accumulation of lipofuscin by RPE cells (autofluorescence) (RPE cells [2]; agonist at 10 μM, two weeks of co-treatment with oxidised outer segments, versus DMSO control): ~20%
- effect on lysosomal pH (in words) (RPE cells [1]; 1 pM, FIG. 1): lowers the lysosomal pH
- restoration of cathepsin D activity (in words) (cathepsin D; RPE cells treated with concanamycin): significantly restores the activity of cathepsin D
- cathepsin D activity (cathepsin D; [3]): 0.040 unit/ml of enzyme/min/μg of proteins
- multiplication of cathepsin D activity compared to negative control (concanamycin) (cathepsin D; [3]): 3 fold

Compound: CC/C(=C(\c1ccccc1)c1ccc(OCCN(C)C)cc1)c1ccccc1 [tamoxifen]
- increase in the lysosomal pH (RPE cells [1]; 15 μM tamoxifen, in 20 minutes): ~1 pH unit
